Laboratory results published in US20170340636A1, “COMPOSITIONS AND METHODS FOR INHIBITION OF AUTOPHAGY” (Board of Regents, The University of Texas System, priority 2016, published 2017).

Key:
[1] = tested on: U2OS GFP-LC3 cells; assay: p62 accumulation by western blot (autophagic flux); type: cell-based, human; details: 50 μM, 24 hours
Procedure: FIG. 4A) U2OS cells stably expressing the GFP-LC3 fusion transgene were treated with the indicated compound at 50 μM concentration for 24 hours before GFP fluorescence was measured by flow cytometry. The median fluorescent value from 20,000 cells per condition was normalized to that of vehicle alone (DMSO) within a given experiment. The mean+SD of >2 independent experiments is shown. ****, p<0.0001; ***, p<0.001; **, p<0.01; ns, p>0.05 versus vehicle alone (DMSO) by unpaired t test. FIG. 4B) TAOK2 inhibitors induce accumulation of p62. U2OS GFP-LC3 cells were treated with the indicated compounds at 50 μM concentration, or DMSO alone, for 24 hours. Lysates were collected and analyzed by western blot using the indicated antibodies. XPB was used as a loading control.
U2OS GFP-LC3 cells were seeded in 6-well plates at 150,000 cells per well in Dulbecco's Modified Eagle Medium supplemented with 10% fetal bovine serum. Twenty-four hours after seeding, the indicated compounds were added to a final concentration of 50 µM, or an equivalent volume of vehicle alone (DMSO) was added. Twenty-four hours after compound addition, cells were rinsed twice with PBS and then lysed in 2× sample buffer. Lysates were boiled for 5 minutes, sonicated to shear DNA, separated by SDS-PAGE, and transferred to PVDF membranes (Biorad). The membranes were blocked in 5% milk in TBS-T (Tris-Buffered-Saline, Tween 20) for one hour at room temperature and then incubated with primary antibody in blocking solution overnight at 4° C. Membranes were then washed, incubated with secondary antibody in blocking solution, washed again, and analyzed by enhanced chemiluminescence followed by exposure to film.
Degradation of the autophagy scaffold and LC3 binding protein p62 is a second marker of autophagic flux. p62 degradation was assayed by Western blotting (FIG. 4B).

[2] = target: T1, ASK1 (Homo sapiens, UniProt Q99683); assay: DSF against ASK1 (selectivity panel of MAPK cascade members); type: binding; details: difference between the TAOK2 ΔTm and that of ASK1, DSF
T1 sequence (Q99683 1-1374): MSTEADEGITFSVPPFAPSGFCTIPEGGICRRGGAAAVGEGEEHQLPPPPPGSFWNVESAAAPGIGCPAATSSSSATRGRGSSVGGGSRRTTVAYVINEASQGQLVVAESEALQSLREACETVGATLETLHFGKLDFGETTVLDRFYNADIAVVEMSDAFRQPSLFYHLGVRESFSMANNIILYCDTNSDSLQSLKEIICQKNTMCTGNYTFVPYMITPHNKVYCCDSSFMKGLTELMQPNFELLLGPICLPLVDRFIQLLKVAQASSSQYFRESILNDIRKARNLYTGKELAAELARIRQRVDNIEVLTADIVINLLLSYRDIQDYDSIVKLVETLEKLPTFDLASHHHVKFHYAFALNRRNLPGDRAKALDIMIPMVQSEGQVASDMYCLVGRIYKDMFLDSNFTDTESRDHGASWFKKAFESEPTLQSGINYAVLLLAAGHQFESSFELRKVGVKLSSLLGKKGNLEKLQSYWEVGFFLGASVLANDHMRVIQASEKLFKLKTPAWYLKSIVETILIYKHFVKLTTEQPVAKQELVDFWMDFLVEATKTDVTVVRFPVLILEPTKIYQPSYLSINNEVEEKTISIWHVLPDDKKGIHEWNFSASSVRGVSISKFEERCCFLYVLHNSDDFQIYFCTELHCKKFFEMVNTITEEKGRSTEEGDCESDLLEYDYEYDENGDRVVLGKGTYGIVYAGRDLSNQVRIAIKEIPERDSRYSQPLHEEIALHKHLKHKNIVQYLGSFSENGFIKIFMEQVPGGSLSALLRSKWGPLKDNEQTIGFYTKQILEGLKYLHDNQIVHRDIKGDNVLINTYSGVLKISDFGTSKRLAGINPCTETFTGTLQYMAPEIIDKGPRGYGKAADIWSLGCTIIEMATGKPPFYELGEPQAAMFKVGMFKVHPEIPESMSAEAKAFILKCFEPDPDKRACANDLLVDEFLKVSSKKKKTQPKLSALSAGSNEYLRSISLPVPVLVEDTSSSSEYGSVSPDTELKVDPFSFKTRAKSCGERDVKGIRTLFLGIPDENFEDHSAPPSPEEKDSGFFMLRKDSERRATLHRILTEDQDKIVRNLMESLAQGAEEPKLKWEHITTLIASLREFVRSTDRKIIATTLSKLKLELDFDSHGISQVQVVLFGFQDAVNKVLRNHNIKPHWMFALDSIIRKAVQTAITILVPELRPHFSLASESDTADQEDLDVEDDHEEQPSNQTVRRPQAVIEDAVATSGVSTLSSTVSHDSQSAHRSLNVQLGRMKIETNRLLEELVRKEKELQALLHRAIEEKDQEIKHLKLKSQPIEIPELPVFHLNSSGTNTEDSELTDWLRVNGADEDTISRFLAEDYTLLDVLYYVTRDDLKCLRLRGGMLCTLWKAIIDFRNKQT
Procedure: (§1) Differential scanning fluorimetry binding assays of selected compounds against TAOK2 were conducted to measure strength of compound binding. A solution of 5 μM TAOK2, 50 mM MgCl2, 50 mM HEPES pH 7.5, and 2.5x SyproOrange(Life Technologies) was made. Compound was added to a final concentration of 1 μM. 25 μl of the reaction solution was added to the wells of a Biorad Multiplate 96 wellclear PCR plate. The plate was covered with a Biorad Microseal ‘B’ seal. Plates were read in a Biorad CFX96 Real-Time PCR system. The temperature was increased from 4° C. to 80° C., with fluorescence measurements being taken every 0.5° C. in the 6-FAM Fluorescein channel. The fluorescence response to heat curve was fit to a binding isotherm in order to determine the inflection point, which was taken as the melt temperature (Tm).
(§2) The difference between the TAOK2 ΔTm and that of p38 and ASK1 was determined. […] The majority of the other compounds were also preferentially inhibitory toward TAOK2. Of the 13 compounds, SW034538, SW172006 and SW083688 were cross-verified for selectivity by performing a specificity screen against 45 kinases commercially at Eurofins Cerep, Inc. (FIG. 3).

[3] = target: p38 (Homo sapiens, UniProt Q16539); assay: DSF against p38 (selectivity panel of MAPK cascade members); type: binding; details: difference between the TAOK2 ΔTm and that of p38, DSF
Sequence of p38 (Q16539 whole entry): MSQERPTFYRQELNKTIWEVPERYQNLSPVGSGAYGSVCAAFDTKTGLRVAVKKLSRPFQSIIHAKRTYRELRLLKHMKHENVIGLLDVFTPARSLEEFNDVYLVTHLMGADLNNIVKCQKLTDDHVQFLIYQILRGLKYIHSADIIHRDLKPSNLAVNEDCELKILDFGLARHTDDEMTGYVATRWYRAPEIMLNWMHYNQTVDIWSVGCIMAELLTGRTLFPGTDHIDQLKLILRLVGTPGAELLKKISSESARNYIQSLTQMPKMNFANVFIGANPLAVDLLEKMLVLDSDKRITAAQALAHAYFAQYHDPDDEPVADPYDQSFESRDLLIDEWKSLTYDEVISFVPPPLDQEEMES
Procedure: as §1, §2

CCC(=O)Nc1nc(C)c(-c2csc(Nc3cc(OC)ccc3OC)n2)s1 [SW034538]
abundance of p62 [1]: did not appear to increase the appearance of p62
ΔΔTm (ASK1) [2]: 2.7 °C
ΔΔTm (p38) [3]: 2.8 °C

CCOCCCn1c(=S)[nH]c2cc(C(=O)NCC3COc4ccccc4O3)ccc2c1=O (stereo not drawn) [SW083688]
abundance of p62 [1]: increased the abundance of p62
ΔΔTm (ASK1) [2]: 2.1 °C
ΔΔTm (p38) [3]: 2.0 °C

CS(=O)(=O)c1ccc2nc(NC(=O)CCCOc3ccc(Cl)cc3)sc2c1 [SW172006]
abundance of p62 [1]: increased the abundance of p62
ΔΔTm (ASK1) [2]: 1.2 °C
ΔΔTm (p38) [3]: 2.0 °C
